# According to US11655450B2, “Method for inducing differentiation of stem cell into dopaminergic neural precursor cell” (S-BIOMEDICS, priority 2019, dated 2023):
# Tests used:
# stem cells = test: Cell adhesion test with ECM; assay type: cell-based, human
# Description: With respect to CELLstart and various concentrations (2-7 μg/mL) of ECM (Laminin 521), stem cells were cultured using the same protocol as in the above Examples to conduct a cell adhesion test.
# FOXA2 and/or LMX1A = test: Immunocytochemistry of FOXA2 and/or LMX1A expression during differentiation into dopaminergic neural precursor cells; assay type: cell-based, human
# Description: Cells were fixed for 10 min in a 4% paraformaldehyde solution.
# In order to smoothly penetrate into the cytoplasm, […] incubated with 0.1% Trition X-100 (in PBS) for 15 min and then with 2% bovine serum albumin (BSA, in PBS) for 1 hour at room temperature.
# Subsequently, the primary antibodies (see Table 1, below) were allowed to bind to the cells at 4° C. Secondary antibodies suitable for the respective primary antibody species (see Table 1, below) were used to confirm the primary antibody-bound cells.
# Finally, cell nuclei were imaged. In this regard, the cells were incubated with 4′, […] (DAPI) in PBS for 10 min to stain the nuclei which were then imaged under a fluorescence microscope. Important markers were identified and analyzed.
# The cells were differentiated into dopaminergic neural precursor cells in the same manner as the method of the present invention, with the exception of treating the cells with SAG and CHIR99021 at respective concentrations of 0.5 μM and 1.0 μM, or 1.0 μM and 1.5 μM, instead of 1.0 μM and 2.0 μM. With the expression of FOXA2 and/or LMX1A, this method was compared to the method of the present disclosure.
compound,measurement,setting,value
Laminin-521: ECM (Laminin 521) used to coat culture dishes,cell adhesion,stem cells; 2 μg/mL and 3 μg/mL,too poor adhesion to conduct the test
same,cell adhesion,stem cells; 4 μg/mL and 5 μg/mL,relatively high adhesion
same,cell state on ECM,stem cells; 6 μg/mL and 7 μg/mL,spontaneous differentiation at high frequency
"Cc1c[nH]c(-c2cnc(NCCNc3ccc(C#N)cn3)nc2-c2ccc(Cl)cc2Cl)n1 [CHIR99021, 6-[[2-[[4-(2,4-dichlorophenyl)-5-(5-methyl-1H-imidazol-2-yl)-2-pyrimidinyl]amino]ethyl]amino]-3-pyridinecarbonitrile]",expression of LMX1A and En-1,"FOXA2 and/or LMX1A; markers for dopaminergic neural precursor cells, as illustrated in the Example section",upregulate the expression of LMX1A and En-1
CNC1CCC(N(Cc2cccc(-c3ccncc3)c2)C(=O)c2sc3ccccc3c2Cl)CC1.Cl.Cl.O.O (centres unmarked) [SAG],expression of FOXA2,"FOXA2 and/or LMX1A; marker for dopaminergic neural precursor cells, as explained in the Example section",upregulate the expression of FOXA2
